tested on: Dengue-2 (Strain New Guinea C); assay: Viral yield assay in Vero cells; format: cell-based; conditions: Dengue virus, Vero, 48 h, read-out: Activity (anti-dengue 2 viral activity, EC50 class)
Procedure: Compounds that were active in the primary screen were tested for activity in viral yield assays. […] Vero cells in 12-well plates were infected with dengue-2 virus at a multiplicity of infection (MOI) of 0.1, treated with compound (or DMSO as a control), incubated at 37° C., harvested 48 hours post infection and titered on Vero cells as described above. The EC50 was calculated through ExcelFit. Activities against other serotypes of dengue virus were determined in a similar way.

Row | SMILES | EC50 [µM]
1 | Cc1ccc2sc(-c3ccc(NC(=O)c4ccccc4Cl)cc3)nc2c1 [Compound 49, 2-Chloro-N-[4-(5-methyl-benzothiazol-2-yl)-phenyl]-benzamide] | > 25

same assay, conditions: Dengue virus; Vero cells, MOI 0.1, harvested 48 hours post infection; read-out: Activity (anti-dengue 2 viral activity, EC50 class)

Row | SMILES | EC50 [µM]
2 | Cc1ccccc1C(=O)Nc1ccc(-c2nc3ccccc3s2)c(O)c1 [Compound 23, N-(4-Benzothiazol-2-yl-3-hydroxy-phenyl)-2-methyl-benzamide] | 10 to 25
3 | O=C(Nc1ccc(-c2nc3ccccc3s2)c(O)c1)c1cccc(F)c1 [Compound 24, N-(4-Benzothiazol-2-yl-3-hydroxy-phenyl)-3-fluoro-benzamide] | 10 to 25
4 | CCOc1ccc(C(=O)Nc2cccc(-c3nc4ccccc4s3)c2C)cc1[N+](=O)O [Compound 25, N-(3-Benzothiazol-2-yl-2-methyl-phenyl)-4-ethoxy-3-nitro-benzamide] | 10 to 25
5 | Cc1ccccc1C(=O)Nc1ccc(-c2nc3ccccc3s2)cc1 [Compound 26, N-(4-Benzothiazol-2-yl-phenyl)-2-methyl-benzamide] | 10 to 25
6 | COc1ccc(C(=O)Nc2ccc(-c3nc4ccccc4s3)c(O)c2)cc1OC [Compound 27, N-(4-Benzothiazol-2-yl-3-hydroxy-phenyl)-3,4-dimethoxy-benzamide] | 10 to 25
7 | COc1ccc(Br)cc1C(=O)Nc1ccc(-c2nc3ccccc3s2)cc1 [Compound 28, N-(4-Benzothiazol-2-yl-phenyl)-5-bromo-2-methoxy-benzamide] | 10 to 25
8 | Cc1ccc2nc(-c3ccc(NC(=O)c4ccc(CN5CCOCC5)cc4)cc3)sc2c1 [Compound 29, N-[4-(6-Methyl-benzothiazol-2-yl)-phenyl]-4-morpholin-4-ylmethyl-benzamide] | 10 to 25
9 | CC(=O)Oc1cccc(C(=O)Nc2ccc(-c3nc4ccccc4s3)cc2)c1 [Compound 30, Acetic acid 3-(4-benzothiazol-2-yl-phenylcarbamoyl)-phenyl ester] | 10 to 25
10 | COc1ccc(Cl)cc1C(=O)Nc1ccc(-c2nc3ccccc3s2)cc1 [Compound 31, N-(4-Benzothiazol-2-yl-phenyl)-5-chloro-2-methoxy-benzamide] | 10 to 25
11 | COc1ccc(C(=O)Nc2ccc(Cl)c(-c3nc4ccccc4s3)c2)cc1OC [Compound 32, N-(3-Benzothiazol-2-yl-4-chloro-phenyl)-3,4-dimethoxy-benzamide] | 10 to 25
12 | Cc1ccc(C(=O)Nc2cccc(-c3nc4ccccc4s3)c2)c(Cl)c1 [Compound 33, N-(3-Benzothiazol-2-yl-phenyl)-2-chloro-4-methyl-benzamide] | 10 to 25
13 | O=C(Nc1ccccc1-c1nc2ccccc2s1)c1ccccc1[N+](=O)[O-] [Compound 34, N-(2-Benzothiazol-2-yl-phenyl)-2-nitro-benzamide] | 10 to 25
14 | O=C(Nc1ccc(-c2nc3ccccc3s2)cc1)c1c(F)c(F)c(F)c(F)c1F [Compound 36, N-(4-Benzothiazol-2-yl-phenyl)-2,3,4,5,6-pentafluoro-benzamide] | 10 to 25
15 | CCCC(=O)Nc1ccc(C(=O)Nc2ccc(-c3nc4ccc(C)cc4s3)cc2)cc1 [Compound 37, 4-Butyrylamino-N-[4-(6-methyl-benzothiazol-2-yl)-phenyl]-benzamide] | 10 to 25
16 | Cc1cc(C)cc(C(=O)Nc2ccc(-c3nc4ccccc4s3)cc2C)c1 [Compound 38, N-(4-Benzothiazol-2-yl-2-methyl-phenyl)-3,5-dimethyl-benzamide] | 10 to 25
17 | Cc1cccc(C(=O)Nc2ccc(-c3nc4ccccc4s3)c(Cl)c2)c1 [Compound 39, N-(4-Benzothiazol-2-yl-3-chloro-phenyl)-3-methyl-benzamide] | 10 to 25
18 | Cc1ccc2nc(-c3ccc(NC(=O)c4ccc(S(=O)(=O)N5CCc6ccccc65)cc4)cc3)sc2c1 [Compound 41, 4-(2,3-Dihydro-indole-1-sulfonyl)-N-[4-(6-methyl-benzothiazol-2-yl)-phenyl]-benzamide] | > 25
19 | Cc1ccc2sc(-c3ccc(NC(=O)c4ccc(Cl)cc4)cc3)nc2c1 [Compound 42, 4-Chloro-N-[4-(5-methyl-benzothiazol-2-yl)-phenyl]-benzamide] | > 25
20 | Cc1ccc(-c2nc3ccccc3s2)cc1NC(=O)c1cccc(I)c1 [Compound 43, N-(5-Benzothiazol-2-yl-2-methyl-phenyl)-3-iodo-benzamide] | > 25
21 | O=C(Nc1ccc(-c2nc3ccccc3s2)cc1)c1cc(I)ccc1I [Compound 44, N-(4-Benzothiazol-2-yl-phenyl)-2,5-diiodo-benzamide] | > 25
22 | O=C(Nc1cccc(-c2nc3ccccc3s2)c1)c1cc(I)ccc1I [Compound 45, N-(3-Benzothiazol-2-yl-phenyl)-2,5-diiodo-benzamide] | > 25
23 | CCOC(=O)N1CCN(S(=O)(=O)c2ccc(C(=O)Nc3cccc(-c4nc5ccccc5s4)c3)cc2)CC1 [Compound 46, 4-[4-(3-Benzothiazol-2-yl-phenylcarbamoyl)-benzenesulfonyl]-piperazine-1-carboxylic acid ethyl ester] | > 25
24 | CCOC(=O)N1CCN(S(=O)(=O)c2ccc(C(=O)Nc3ccccc3-c3nc4ccccc4s3)cc2)CC1 [Compound 47, 4-[4-(2-Benzothiazol-2-yl-phenylcarbamoyl)-benzenesulfonyl]-piperazine-1-carboxylic acid ethyl ester] | > 25

Row | SMILES | EC50 [µM]
25 | COc1cc(C(=O)Nc2ccc(-c3nc4ccccc4s3)cc2)cc(OC)c1OC [Compound 48, N-(4-Benzothiazol-2-yl-phenyl)-3,4,5-trimethoxy-benzamide] | > 25
26 | Cc1ccc(-c2nc3ccccc3s2)cc1NC(=O)c1ccc(F)cc1 [Compound 50, N-(5-Benzothiazol-2-yl-2-methyl-phenyl)-4-fluoro-benzamide] | > 25
27 | COc1cc(C(=O)Nc2cc(-c3nc4ccccc4s3)ccc2C)cc(OC)c1OC [Compound 51, N-(5-Benzothiazol-2-yl-2-methyl-phenyl)-3,4,5-trimethoxy-benzamide] | > 25
28 | COc1ccccc1C(=O)Nc1cc(-c2nc3ccccc3s2)ccc1C [Compound 52, N-(5-Benzothiazol-2-yl-2-methyl-phenyl)-2-methoxy-benzamide] | > 25
29 | O=C(Nc1ccc(O)c(-c2nc3ccccc3s2)c1)c1ccc([N+](=O)[O-])cc1 [Compound 53, N-(3-Benzothiazol-2-yl-4-hydroxy-phenyl)-4-nitro-benzamide] | > 25
30 | O=C(Nc1ccc(-c2nc3ccccc3s2)c(O)c1)c1ccccc1F [Compound 54, N-(4-Benzothiazol-2-yl-3-hydroxy-phenyl)-2-fluoro-benzamide] | > 25
31 | Cc1ccccc1C(=O)Nc1ccc(O)c(-c2nc3ccccc3s2)c1 [Compound 55, N-(3-Benzothiazol-2-yl-4-hydroxy-phenyl)-2-methyl-benzamide] | > 25
32 | O=C(Nc1ccc(O)c(-c2nc3ccccc3s2)c1)c1ccccc1 [Compound 56, N-(3-Benzothiazol-2-yl-4-hydroxy-phenyl)-benzamide] | > 25
33 | O=C(Nc1ccc(O)c(-c2nc3ccccc3s2)c1)c1ccccc1F [Compound 57, N-(3-Benzothiazol-2-yl-4-hydroxy-phenyl)-2-fluoro-benzamide] | > 25
34 | COc1cccc(C(=O)Nc2ccc(O)c(-c3nc4ccccc4s3)c2)c1 [Compound 58, N-(3-Benzothiazol-2-yl-4-hydroxy-phenyl)-3-methoxy-benzamide] | > 25
35 | O=C(Nc1ccc(-c2nc3ccccc3s2)c(O)c1)c1ccccc1 [Compound 59, N-(4-Benzothiazol-2-yl-3-hydroxy-phenyl)-benzamide] | > 25
36 | COc1ccc(C(=O)Nc2ccc(-c3nc4ccccc4s3)c(O)c2)cc1[N+](=O)[O-] [Compound 60, N-(4-Benzothiazol-2-yl-3-hydroxy-phenyl)-4-methoxy-3-nitro-benzamide] | > 25
37 | O=C(Nc1ccc(O)c(-c2nc3ccccc3s2)c1)c1ccc(F)cc1 [Compound 61, N-(3-Benzothiazol-2-yl-4-hydroxy-phenyl)-4-fluoro-benzamide] | > 25
38 | O=C(Nc1ccc(O)c(-c2nc3ccccc3s2)c1)c1cccc(F)c1 [Compound 62, N-(3-Benzothiazol-2-yl-hydroxy-phenyl)-3-fluoro-benzamide] | > 25
39 | Cc1c(NC(=O)c2cc([N+](=O)[O-])ccc2Cl)cccc1-c1nc2ccccc2s1 [Compound 63, N-(3-Benzothiazol-2-yl-2-methyl-phenyl)-2-chloro-5-nitro-benzamide] | > 25
40 | COc1ccc(C(=O)Nc2cccc(-c3nc4ccccc4s3)c2C)cc1[N+](=O)O [Compound 64, N-(3-Benzothiazol-2-yl-2-methyl-phenyl)-4-methoxy-3-nitro-benzamide] | > 25
41 | Cc1c(NC(=O)c2ccc([N+](=O)[O-])cc2)cccc1-c1nc2ccccc2s1 [Compound 65, N-(3-Benzothiazol-2-yl-2-methyl-phenyl)-4-nitro-benzamide] | > 25
42 | Cc1c(NC(=O)c2ccccc2F)cccc1-c1nc2ccccc2s1 [Compound 66, N-(3-Benzothiazol-2-yl-2-methyl-phenyl)-2-fluoro-benzamide] | > 25
43 | O=C(Nc1cc(-c2nc3ccccc3s2)ccc1Cl)c1ccccc1[N+](=O)[O-] [Compound 67, N-(5-Benzothiazol-2-yl-2-chloro-phenyl)-2-nitro-benzamide] | > 25
44 | Cc1ccc(-c2nc3ccccc3s2)cc1NC(=O)c1ccccc1[N+](=O)O [Compound 68, N-(5-Benzothiazol-2-yl-2-methyl-phenyl)-2-nitro-benzamide] | > 25
45 | COc1cc(C(=O)Nc2cccc(-c3nc4ccccc4s3)c2C)cc(OC)c1OC [Compound 69, N-(3-Benzothiazol-2-yl-2-methyl-phenyl)-3,4,5-trimethoxy-benzamide] | > 25
46 | COc1cc(C(=O)Nc2cc(-c3nc4ccccc4s3)ccc2Cl)cc(OC)c1OC [Compound 70, N-(5-Benzothiazol-2-yl-2-chloro-phenyl)-3,4,5-trimethoxy-benzamide] | > 25

From US8993604B2, “Treatment and prevention of dengue virus infections” (Siga Technologies, Inc., priority 2009, dated 2015)
